Test results: ChEMBL document CHEMBL1201862, “PubChem BioAssay data set” (2004)
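Following 48 hours of exposure in 96-well plates, responses at five concentrations were used to interpolate endpoints linearly. GI50 marks 50% less growth.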 Calls of active or inactive are those of the source. Cut-off read from the data, not from the text of the source: active = GI50 up to about 1.1 µM and inactive = higher.

Legend:
Assay in all cases: DTP human tumour cell line panel, 48 h
DMS-114 = system: DMS-114
SW-620 = system: SW-620
EKVX = system: EKVX
SNB-19 = system: SNB-19
HOP-92 = system: HOP-92
HCT-116 = system: HCT-116
RPMI-8226 = system: RPMI-8226
M19-MEL = system: M19-MEL
NCI-H226 = system: NCI-H226
OVCAR-8 = system: OVCAR-8
SN12C = system: SN12C
OVCAR-3 = system: OVCAR-3
KM-20L2 = system: KM-20L2
786-0 = system: 786-0
UACC-62 = system: UACC-62
SK-OV-3 = system: SK-OV-3
NCI-H522 = system: NCI-H522

Measured: GI50

Cc1ccc(C)c(NC(=O)CC2C(=O)Nc3ccccc3S2(=O)=O)c1 (configuration not stated)
inactive: DMS-114 45.4 µM | SW-620 36.6 µM | EKVX 31.2 µM | SNB-19 75 µM | HOP-92 38.8 µM | HCT-116 52.2 µM | RPMI-8226 36.6 µM | M19-MEL 63 µM | NCI-H226 36.8 µM | OVCAR-8 37.2 µM | SN12C > 100 µM | OVCAR-3 42 µM | KM-20L2 > 100 µM | 786-0 22.8 µM | UACC-62 46.2 µM

O=C(O)c1cc(=O)c2[nH]c3ccccc3c2s1
inactive: DMS-114 > 100 µM | SW-620 > 100 µM | EKVX > 100 µM | SNB-19 > 100 µM | SK-OV-3 > 100 µM | HOP-92 > 100 µM | NCI-H522 > 100 µM | RPMI-8226 > 100 µM | M19-MEL > 100 µM | OVCAR-8 > 100 µM | SN12C > 100 µM | OVCAR-3 > 100 µM | KM-20L2 > 100 µM | 786-0 > 100 µM | UACC-62 > 100 µM

Nc1cc(=O)n(-c2ccccc2)c(=S)n1-c1ccccc1
inactive: DMS-114 > 100 µM | SW-620 > 100 µM | EKVX > 100 µM | SNB-19 > 100 µM | SK-OV-3 > 100 µM | NCI-H522 > 100 µM | HCT-116 > 100 µM | RPMI-8226 > 100 µM | M19-MEL > 100 µM | NCI-H226 > 100 µM | OVCAR-8 > 100 µM | SN12C > 100 µM | OVCAR-3 > 100 µM | KM-20L2 > 100 µM | 786-0 > 100 µM | UACC-62 > 100 µM

COc1ccc2nccc(C3=CCC4CCN(C(=O)c5ccccc5)C3C4)c2c1 (configuration not stated)
inactive: DMS-114 > 100 µM | SW-620 > 100 µM | EKVX > 100 µM | SNB-19 > 100 µM | SK-OV-3 > 100 µM | HOP-92 > 100 µM | NCI-H522 > 100 µM | HCT-116 > 100 µM | RPMI-8226 46.1 µM | M19-MEL > 100 µM | OVCAR-8 > 100 µM | SN12C > 100 µM | OVCAR-3 86.9 µM | 786-0 > 100 µM | UACC-62 > 100 µM

N#Cc1cc(NC(=O)c2ccccc2)c(=O)n2c1[nH]c1ccccc12
inactive: DMS-114 23 µM | SW-620 39 µM | EKVX 36.3 µM | SNB-19 23.4 µM | SK-OV-3 28.8 µM | NCI-H522 11 µM | HCT-116 21.4 µM | RPMI-8226 11.7 µM | M19-MEL 30.1 µM | OVCAR-8 38.3 µM | SN12C 29.1 µM | OVCAR-3 28.2 µM | KM-20L2 32.7 µM | 786-0 37.2 µM | UACC-62 17.4 µM

Cc1cc2c3ccccc3n3c2c2c1OC1(C)CCC(C2C1)C3(C)C (configuration not stated)
inactive: DMS-114 > 25 µM | SW-620 > 25 µM | SNB-19 > 25 µM | SK-OV-3 > 25 µM | HOP-92 > 25 µM | NCI-H522 > 25 µM | HCT-116 > 25 µM | RPMI-8226 > 25 µM | M19-MEL > 25 µM | NCI-H226 > 25 µM | OVCAR-8 > 25 µM | SN12C > 25 µM | OVCAR-3 > 25 µM | KM-20L2 > 25 µM | 786-0 > 25 µM | UACC-62 > 25 µM

Cc1ccc(-n2c3nc(=O)n(C)c(=O)c-3nc3ccccc32)cc1
inactive: DMS-114 13.7 µM | SW-620 5.75 µM | EKVX 12.9 µM | SNB-19 12.9 µM | SK-OV-3 95.7 µM | NCI-H522 12.6 µM | HCT-116 19.1 µM | RPMI-8226 12.5 µM | NCI-H226 17.3 µM | OVCAR-8 9.2 µM | SN12C 11.5 µM | OVCAR-3 3.24 µM | KM-20L2 5.27 µM | 786-0 30.2 µM | UACC-62 2.3 µM

Clc1ccc2nc(-c3ccccc3)nc(Cl)c2c1
inactive: DMS-114 39.3 µM | SW-620 > 100 µM | EKVX 29.2 µM | SNB-19 69.2 µM | SK-OV-3 12.3 µM | HOP-92 25.4 µM | HCT-116 73.6 µM | RPMI-8226 > 100 µM | M19-MEL 58.2 µM | NCI-H226 34 µM | OVCAR-8 37 µM | SN12C > 100 µM | OVCAR-3 49.2 µM | KM-20L2 > 100 µM | 786-0 33 µM | UACC-62 49.8 µM

Cc1nc(-n2nc(-c3ccccc3)cc2-c2ccccc2)sc1C(=O)CC(=O)C(=O)Nc1ccc(O)cc1
inactive: DMS-114 > 100 µM | SW-620 > 100 µM | EKVX > 100 µM | SNB-19 > 100 µM | SK-OV-3 > 100 µM | NCI-H522 > 100 µM | HCT-116 > 100 µM | RPMI-8226 > 100 µM | NCI-H226 > 100 µM | OVCAR-8 > 100 µM | SN12C > 100 µM | OVCAR-3 > 100 µM | KM-20L2 > 100 µM | 786-0 > 100 µM | UACC-62 > 100 µM

CC(=O)O/N=C(/C)c1ccccc1O
inactive: DMS-114 > 100 µM | SW-620 > 100 µM | EKVX > 100 µM | SNB-19 > 100 µM | SK-OV-3 > 100 µM | NCI-H522 > 100 µM | HCT-116 > 100 µM | RPMI-8226 > 100 µM | M19-MEL > 100 µM | NCI-H226 > 100 µM | OVCAR-8 > 100 µM | SN12C > 100 µM | OVCAR-3 > 100 µM | KM-20L2 > 100 µM | 786-0 > 100 µM | UACC-62 > 100 µM

CCOC(=O)C1CC/C(=C(/C#N)C(=O)OC)N1 (configuration not stated)
inactive: DMS-114 > 100 µM | SW-620 > 100 µM | EKVX > 100 µM | SNB-19 > 100 µM | SK-OV-3 57.7 µM | HOP-92 > 100 µM | NCI-H522 > 100 µM | HCT-116 > 100 µM | RPMI-8226 > 100 µM | M19-MEL > 100 µM | OVCAR-8 > 100 µM | SN12C > 100 µM | OVCAR-3 > 100 µM | KM-20L2 > 100 µM | 786-0 > 100 µM | UACC-62 31.8 µM

C(=C1/CCCCC([n+]2ccccc2)=N1)/c1ccccc1
inactive: DMS-114 > 100 µM | SW-620 > 100 µM | EKVX > 100 µM | SK-OV-3 > 100 µM | HOP-92 > 100 µM | NCI-H522 > 100 µM | HCT-116 > 100 µM | RPMI-8226 > 100 µM | M19-MEL > 100 µM | NCI-H226 > 100 µM | OVCAR-8 > 100 µM | SN12C > 100 µM | OVCAR-3 > 100 µM | KM-20L2 > 100 µM | 786-0 > 100 µM | UACC-62 > 100 µM

COc1ccc2[nH]c3c(C)c4c(c(C)c3c2c1)CN(C)CC4
inactive: DMS-114 18.6 µM | SW-620 4.21 µM | SNB-19 17.3 µM | SK-OV-3 16.3 µM | HOP-92 16.9 µM | NCI-H522 18 µM | HCT-116 3.17 µM | RPMI-8226 4.69 µM | M19-MEL 17.3 µM | NCI-H226 15.8 µM | OVCAR-8 11.9 µM | SN12C 16.3 µM | OVCAR-3 16 µM | KM-20L2 17 µM | 786-0 14.6 µM | UACC-62 19.2 µM

O=[N+]([O-])c1ccc(C[P+](c2ccccc2)(c2ccccc2)c2ccccc2)cc1
inactive: DMS-114 23.2 µM | SW-620 88.3 µM | EKVX > 100 µM | SNB-19 > 100 µM | SK-OV-3 > 100 µM | NCI-H522 32.7 µM | HCT-116 36.5 µM | RPMI-8226 26.2 µM | M19-MEL 24.2 µM | NCI-H226 > 100 µM | OVCAR-8 73.1 µM | SN12C > 100 µM | OVCAR-3 42.8 µM | KM-20L2 99.3 µM | 786-0 > 100 µM | UACC-62 32.1 µM

Nc1nc(OCc2ccccc2)c2nc[nH]c2n1 [6-O-BENZYLGUANINE]
inactive: DMS-114 64 µM | SW-620 169 µM | EKVX 99.5 µM | SNB-19 129 µM | SK-OV-3 75.7 µM | HOP-92 64.4 µM | NCI-H522 49.4 µM | HCT-116 59.6 µM | M19-MEL 198 µM | NCI-H226 47.5 µM | OVCAR-8 112 µM | SN12C 90.4 µM | OVCAR-3 90.2 µM | KM-20L2 85.7 µM | 786-0 80.7 µM | UACC-62 44.2 µM

O=C1c2ccccc2C(=O)c2c(O)c(NCCNCCO)cc(O)c21
inactive: DMS-114 4.19 µM | SW-620 2.79 µM | EKVX 2.47 µM | SNB-19 1.75 µM | HOP-92 11.1 µM | HCT-116 2.3 µM | RPMI-8226 3.88 µM | M19-MEL 3.62 µM | NCI-H226 3.83 µM | OVCAR-8 3.01 µM | SN12C 3.99 µM | OVCAR-3 4.39 µM | KM-20L2 4.12 µM | 786-0 3.33 µM | UACC-62 11.5 µM

CC1(C)CC(=O)C=C(NC(=O)c2ccccc2)C1
inactive: DMS-114 > 100 µM | SW-620 > 100 µM | EKVX > 100 µM | SNB-19 > 100 µM | SK-OV-3 > 100 µM | HOP-92 > 100 µM | NCI-H522 > 100 µM | HCT-116 > 100 µM | RPMI-8226 > 100 µM | M19-MEL > 100 µM | OVCAR-8 > 100 µM | SN12C > 100 µM | OVCAR-3 > 100 µM | 786-0 > 100 µM | UACC-62 > 100 µM

Cc1ccc(S(=O)(=O)Nc2ccccc2C(C)(C)C)cc1
inactive: DMS-114 17.9 µM | SW-620 32.3 µM | EKVX 33.2 µM | SK-OV-3 30.5 µM | HCT-116 15.2 µM | RPMI-8226 18.7 µM | M19-MEL 25.6 µM | NCI-H226 22.1 µM | OVCAR-8 29.6 µM | OVCAR-3 17.2 µM | KM-20L2 19 µM | 786-0 25.5 µM | UACC-62 16.1 µM
